Patent publication US20240067668A1, “HETEROARYL DERIVATIVE COMPOUND AND USE THEREOF” (VORONOI INC., priority 2020, published 2024)

Key:
EGFR (E746-A750del) = molecular target: T1, EGFR (E746-A750del) (Homo sapiens, UniProt P00533, DEL746-750); assay: scanMAX Kinase analysis panel (DiscoverX), control percentage; format: binding; settings: 1 μM in DMSO
T1 construct: purchased DiscoverX
Protocol: (§1) The following experiments were performed to evaluate the inhibitory activity of compounds according to the present invention against various enzymes. Specifically, with respect to the compound of Example 2 selected from the Example Compounds of the present invention, the enzyme (kinase) selectivity was measured by requesting DiscoverX company, and the experiment was conducted using a scanMAX™ Kinase analysis panel. Here, the concentration of the drug treated with the enzyme was 1 μM in DMSO, and the control percentage (% control) was determined by the following Equation 1.
(§2) (Example Compound−positive control)/(negative control−positive control)×100 [Equation 1]
(§3) Here, the positive control indicates a compound showing the control percentage of 0%, and the negative control indicates DMSO showing the control percentage of 100%. Further, regarding the enzyme selectivity of the present invention, when the control percentage for each enzyme was <30% (i.e., less than 30%), the compound was determined to have the activity against the corresponding enzyme.

[1] = molecular target: T2, EGFR (L747-S752del, P753S) (Homo sapiens, UniProt P00533, DEL747-752/P753S); assay: as above; format: binding; settings: 1 μM in DMSO
T2 construct: purchased DiscoverX
T2 sequence (P00533 with tags, fused parts or gaps DEL747-752/P753S): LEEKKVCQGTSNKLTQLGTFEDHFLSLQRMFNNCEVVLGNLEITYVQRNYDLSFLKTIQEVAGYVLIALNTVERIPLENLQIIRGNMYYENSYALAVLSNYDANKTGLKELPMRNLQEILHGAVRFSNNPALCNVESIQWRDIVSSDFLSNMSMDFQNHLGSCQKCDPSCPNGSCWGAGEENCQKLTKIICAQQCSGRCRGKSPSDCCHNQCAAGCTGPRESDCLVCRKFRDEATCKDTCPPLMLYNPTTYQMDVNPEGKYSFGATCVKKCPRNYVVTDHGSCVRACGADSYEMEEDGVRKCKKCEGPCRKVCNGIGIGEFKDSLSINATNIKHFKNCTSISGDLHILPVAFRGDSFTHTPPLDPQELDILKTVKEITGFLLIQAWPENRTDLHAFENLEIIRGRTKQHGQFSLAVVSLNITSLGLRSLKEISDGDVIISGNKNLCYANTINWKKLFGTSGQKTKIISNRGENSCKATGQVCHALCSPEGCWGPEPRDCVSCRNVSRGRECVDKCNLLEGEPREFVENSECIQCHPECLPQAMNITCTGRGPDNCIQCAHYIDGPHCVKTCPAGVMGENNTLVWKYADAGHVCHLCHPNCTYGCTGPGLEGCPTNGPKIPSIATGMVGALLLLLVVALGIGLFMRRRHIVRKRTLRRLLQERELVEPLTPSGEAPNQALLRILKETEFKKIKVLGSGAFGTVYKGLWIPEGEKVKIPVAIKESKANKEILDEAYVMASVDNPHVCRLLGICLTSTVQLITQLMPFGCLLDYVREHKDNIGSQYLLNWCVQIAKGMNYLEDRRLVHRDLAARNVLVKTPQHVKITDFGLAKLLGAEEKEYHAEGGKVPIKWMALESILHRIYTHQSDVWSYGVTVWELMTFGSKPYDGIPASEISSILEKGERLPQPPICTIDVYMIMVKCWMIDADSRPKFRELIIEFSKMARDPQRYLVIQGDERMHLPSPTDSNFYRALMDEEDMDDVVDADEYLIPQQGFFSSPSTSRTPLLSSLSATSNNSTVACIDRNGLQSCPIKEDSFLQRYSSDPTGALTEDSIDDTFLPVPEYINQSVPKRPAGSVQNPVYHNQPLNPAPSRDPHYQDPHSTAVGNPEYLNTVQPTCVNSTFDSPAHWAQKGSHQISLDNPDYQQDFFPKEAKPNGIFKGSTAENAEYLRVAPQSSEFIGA
Protocol: as §1, §2, §3

EGFR = molecular target: T3, EGFR (Homo sapiens, UniProt P00533); assay: as above; format: binding; settings: 1 μM in DMSO
T3 construct: purchased DiscoverX
T3 sequence (P00533 25-1210): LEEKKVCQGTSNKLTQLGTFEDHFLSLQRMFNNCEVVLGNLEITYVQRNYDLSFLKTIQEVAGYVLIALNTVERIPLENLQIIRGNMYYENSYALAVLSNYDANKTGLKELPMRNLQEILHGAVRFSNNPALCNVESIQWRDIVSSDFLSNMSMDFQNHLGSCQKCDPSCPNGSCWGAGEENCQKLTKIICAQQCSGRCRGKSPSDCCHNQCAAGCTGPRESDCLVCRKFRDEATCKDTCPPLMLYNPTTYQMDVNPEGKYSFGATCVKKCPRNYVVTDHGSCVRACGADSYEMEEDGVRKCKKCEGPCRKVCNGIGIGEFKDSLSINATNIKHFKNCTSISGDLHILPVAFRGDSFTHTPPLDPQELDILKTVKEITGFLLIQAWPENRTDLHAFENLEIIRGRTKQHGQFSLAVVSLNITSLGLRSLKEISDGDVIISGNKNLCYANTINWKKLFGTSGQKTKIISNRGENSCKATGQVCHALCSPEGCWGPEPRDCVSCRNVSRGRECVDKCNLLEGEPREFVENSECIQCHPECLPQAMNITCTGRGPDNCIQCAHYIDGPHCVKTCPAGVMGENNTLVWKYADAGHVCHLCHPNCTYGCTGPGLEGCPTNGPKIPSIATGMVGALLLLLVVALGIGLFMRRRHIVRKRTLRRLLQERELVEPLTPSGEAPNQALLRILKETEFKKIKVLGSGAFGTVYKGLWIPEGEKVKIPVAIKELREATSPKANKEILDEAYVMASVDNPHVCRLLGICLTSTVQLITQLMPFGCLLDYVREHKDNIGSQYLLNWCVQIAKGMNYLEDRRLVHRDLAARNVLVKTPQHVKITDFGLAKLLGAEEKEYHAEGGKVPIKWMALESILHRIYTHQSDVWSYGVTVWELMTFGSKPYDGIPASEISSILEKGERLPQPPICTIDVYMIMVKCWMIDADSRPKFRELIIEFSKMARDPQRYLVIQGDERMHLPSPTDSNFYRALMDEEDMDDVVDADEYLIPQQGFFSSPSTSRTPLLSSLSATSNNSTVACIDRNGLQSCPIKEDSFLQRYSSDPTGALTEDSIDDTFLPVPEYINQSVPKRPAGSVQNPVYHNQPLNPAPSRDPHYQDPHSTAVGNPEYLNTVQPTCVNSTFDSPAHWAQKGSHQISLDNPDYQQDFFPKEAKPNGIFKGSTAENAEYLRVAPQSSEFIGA
Protocol: as §1, §2, §3

EGFR (G719S) = molecular target: T4, EGFR (G719S) (Homo sapiens, UniProt P00533, G719S); assay: as above; format: binding; settings: 1 μM in DMSO
T4 construct: purchased DiscoverX
Protocol: as §1, §2, §3

EGFR (L858R) = molecular target: T5, EGFR (L858R) (Homo sapiens, UniProt P00533, L858R); assay: as above; format: binding; settings: 1 μM in DMSO
T5 construct: purchased DiscoverX
Protocol: as §1, §2, §3

EGFR (T790M) = molecular target: T6, EGFR (T790M) (Homo sapiens, UniProt P00533, T790M); assay: as above; format: binding; settings: 1 μM in DMSO
T6 construct: purchased DiscoverX
Protocol: as §1, §2, §3

EGFR (L858R, T790M) = molecular target: T7, EGFR (L858R, T790M) (Homo sapiens, UniProt P00533, L858R/T790M); assay: as above; format: binding; settings: 1 μM in DMSO
T7 construct: purchased DiscoverX
T7 sequence (P00533 25-1210 T790M/L858R): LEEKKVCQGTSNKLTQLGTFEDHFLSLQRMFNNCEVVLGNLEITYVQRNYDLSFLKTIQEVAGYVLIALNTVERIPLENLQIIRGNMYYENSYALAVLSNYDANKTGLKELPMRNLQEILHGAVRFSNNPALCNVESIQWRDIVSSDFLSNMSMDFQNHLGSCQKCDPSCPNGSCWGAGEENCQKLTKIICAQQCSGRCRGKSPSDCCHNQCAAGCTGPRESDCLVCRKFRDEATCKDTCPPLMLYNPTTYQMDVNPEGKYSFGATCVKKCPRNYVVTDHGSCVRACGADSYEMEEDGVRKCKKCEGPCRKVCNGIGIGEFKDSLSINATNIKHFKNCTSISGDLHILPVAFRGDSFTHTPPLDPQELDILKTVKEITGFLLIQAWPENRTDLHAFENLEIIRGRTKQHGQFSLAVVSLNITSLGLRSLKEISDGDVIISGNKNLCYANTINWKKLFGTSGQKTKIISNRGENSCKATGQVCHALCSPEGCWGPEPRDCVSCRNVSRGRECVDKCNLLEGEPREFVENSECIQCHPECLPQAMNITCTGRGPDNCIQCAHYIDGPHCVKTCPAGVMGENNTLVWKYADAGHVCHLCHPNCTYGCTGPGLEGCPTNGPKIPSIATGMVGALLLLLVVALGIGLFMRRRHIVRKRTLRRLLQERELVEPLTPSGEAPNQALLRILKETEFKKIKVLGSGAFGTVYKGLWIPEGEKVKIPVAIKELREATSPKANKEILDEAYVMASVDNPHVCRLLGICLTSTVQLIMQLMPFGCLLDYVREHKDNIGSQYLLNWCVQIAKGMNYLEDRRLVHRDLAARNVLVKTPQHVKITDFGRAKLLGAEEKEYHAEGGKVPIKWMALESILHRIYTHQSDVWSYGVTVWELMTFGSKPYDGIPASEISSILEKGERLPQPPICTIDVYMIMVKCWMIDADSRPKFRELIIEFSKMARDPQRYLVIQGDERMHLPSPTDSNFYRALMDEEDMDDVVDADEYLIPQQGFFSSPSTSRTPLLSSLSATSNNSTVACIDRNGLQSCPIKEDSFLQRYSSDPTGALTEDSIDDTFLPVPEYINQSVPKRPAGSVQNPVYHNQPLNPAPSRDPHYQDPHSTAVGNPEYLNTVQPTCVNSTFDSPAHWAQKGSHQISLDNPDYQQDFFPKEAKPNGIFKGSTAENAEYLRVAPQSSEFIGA
Protocol: as §1, §2, §3

[2] = system: EGFR (L747-T751del, Sins); assay: as above; format: binding; settings: 1 μM in DMSO
Protocol: as §1, §2, §3

EGFR (G719C) = molecular target: T8, EGFR (G719C) (Homo sapiens, UniProt P00533, G719C); assay: as above; format: binding; settings: 1 μM in DMSO
T8 construct: purchased DiscoverX
Protocol: as §1, §2, §3

EGFR(S752-I759del) = molecular target: T9, EGFR(S752-I759del) (Homo sapiens, UniProt P00533, DEL752-759); assay: as above; format: binding; settings: 1 μM in DMSO
T9 construct: purchased DiscoverX
Protocol: as §1, §2, §3

[3] = molecular target: T10, EGFR (L747-E749del, A750P) (Homo sapiens, UniProt P00533, A750P/DEL747-749); assay: as above; format: binding; settings: 1 μM in DMSO
T10 construct: purchased DiscoverX
T10 sequence (P00533 with tags, fused parts or gaps DEL747-749/A750P): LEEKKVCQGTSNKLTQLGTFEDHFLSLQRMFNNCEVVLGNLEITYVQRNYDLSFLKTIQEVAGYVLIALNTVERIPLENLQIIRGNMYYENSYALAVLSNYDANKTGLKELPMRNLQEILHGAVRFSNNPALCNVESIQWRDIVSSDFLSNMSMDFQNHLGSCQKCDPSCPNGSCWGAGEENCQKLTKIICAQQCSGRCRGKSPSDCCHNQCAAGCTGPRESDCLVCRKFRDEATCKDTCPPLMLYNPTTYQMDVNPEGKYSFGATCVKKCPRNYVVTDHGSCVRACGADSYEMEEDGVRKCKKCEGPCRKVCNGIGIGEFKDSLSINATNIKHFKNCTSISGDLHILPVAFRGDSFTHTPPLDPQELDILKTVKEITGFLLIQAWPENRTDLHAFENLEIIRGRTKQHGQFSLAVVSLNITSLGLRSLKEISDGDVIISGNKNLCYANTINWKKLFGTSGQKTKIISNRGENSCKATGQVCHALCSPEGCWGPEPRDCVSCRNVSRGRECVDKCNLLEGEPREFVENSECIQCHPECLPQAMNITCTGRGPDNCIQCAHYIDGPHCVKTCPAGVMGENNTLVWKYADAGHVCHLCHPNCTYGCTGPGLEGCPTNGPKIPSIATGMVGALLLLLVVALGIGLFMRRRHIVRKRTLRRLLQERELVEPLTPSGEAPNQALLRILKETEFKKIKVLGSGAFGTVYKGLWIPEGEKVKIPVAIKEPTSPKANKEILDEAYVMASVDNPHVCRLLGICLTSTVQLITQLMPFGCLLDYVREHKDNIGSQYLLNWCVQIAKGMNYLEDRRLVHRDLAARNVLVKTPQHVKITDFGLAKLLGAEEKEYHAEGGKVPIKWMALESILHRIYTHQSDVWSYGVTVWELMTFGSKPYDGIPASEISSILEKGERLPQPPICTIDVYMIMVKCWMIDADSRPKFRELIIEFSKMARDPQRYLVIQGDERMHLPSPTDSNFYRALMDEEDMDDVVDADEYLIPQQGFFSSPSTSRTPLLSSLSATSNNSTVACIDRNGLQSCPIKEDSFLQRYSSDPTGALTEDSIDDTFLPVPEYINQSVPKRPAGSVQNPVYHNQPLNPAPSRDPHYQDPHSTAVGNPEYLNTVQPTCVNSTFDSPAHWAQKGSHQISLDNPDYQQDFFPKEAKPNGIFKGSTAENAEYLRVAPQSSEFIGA
Protocol: as §1, §2, §3

EGFR (L861Q) = molecular target: T11, EGFR (L861Q) (Homo sapiens, UniProt P00533, L861Q); assay: as above; format: binding; settings: 1 μM in DMSO
T11 construct: purchased DiscoverX
Protocol: as §1, §2, §3

[4] = system: BaF3-EGFR (Del19/T790M/C797S) cells; assay: Inhibitory activity on Ba/F3 cell proliferation (CellTiter-Glo, 72 hours); format: cell-based; settings: Ba/F3 cells expressing EGFR Del19/T790M/C797S
Outline: (§4)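 Ba/F3 cells expressing wild-type EGFR or EGFR Del19/T790M/C797S, 3×10^3 per well, exposed 72 h at 37 °C to compound at 12 threefold dilutions, 0.00005-10 μM final. Viability by CellTiter-Glo 2.0; GI50 derived from growth relative to DMSO-treated cells.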

BaF3-EGFR (WT) cells = assay: as above; format: cell-based; settings: Ba/F3 cells expressing EGFR WT
Outline: as §4

EGFR Del19/T790M/C797S = EGFR Del19/T790M/C797S (Homo sapiens, UniProt P00533, C797S/T790M, form not given); assay: Enzyme IC50, EGFR Del19/T790M/C797S; format: biochemical

COc1cc(N2CCC(N3CCN(C)CC3)CC2)c(C)cc1Nc1nc(Nc2ccc3nccnc3c2P(C)(C)=O)c2cc[nH]c2n1 [Example 54, (6-((2-((2-methoxy-5-methyl-4-(4-(4-methyl-piperazin-1-yl)piperidin-1-yl)phenyl)amino)-7H-pyrrolo[2,3-d]pyrimidin-4-yl)amino)quinoxalin-5-yl)dimethyl-phosphine oxide]
remaining binding at 1 µM (EGFR (E746-A750del)): < 30% | remaining binding at 1 µM [1]: < 30% | remaining binding at 1 µM (EGFR): < 30% | remaining binding at 1 µM (EGFR (G719S)): < 30% | remaining binding at 1 µM (EGFR (L858R)): < 30% | remaining binding at 1 µM (EGFR (T790M)): < 30% | remaining binding at 1 µM (EGFR (L858R, T790M)): < 30% | control percentage (% control) [2]: < 30% | remaining binding at 1 µM (EGFR (G719C)): < 30% | remaining binding at 1 µM (EGFR(S752-I759del)): < 30% | remaining binding at 1 µM [3]: < 30% | remaining binding at 1 µM (EGFR (L861Q)): < 30% | GI50 [4]: ≤ 0.05 µM | GI50 (BaF3-EGFR (WT) cells): > 0.1 µM | IC50 (EGFR Del19/T790M/C797S): ≤ 0.05 µM
